Experiment [1] concerns Trypanosoma cruzi. In words: Antitrypanosomal activity against Trypanosoma cruzi. Format: functional, organism-based.
In experiment [2] the test system is Trypanosoma cruzi. In words: Antitrypanosomal activity against Trypanosoma cruzi after 24 hrs. Format: functional, organism-based.
The nature of experiment [3]: Cytotoxicity against human HepG cells. Format: functional, cell-based.
Experiment [4] has as its system KB. In words: Cytotoxicity against human KB cells. Type of experiment: functional, cell-based.
In experiment [5] the test system is HeLa. In words: Cytotoxicity against human HeLa cells. Type of experiment: functional, cell-based.

For seven compounds, IC50 results are on record in ChEMBL document CHEMBL2434923, “Synthesis of quinoidal molecules: strategies towards bioactive compounds with an emphasis on lapachones” (Eur J Med Chem, 2013).

`CC1(C)CCc2c(c3ccccc3c3nc(-c4c[nH]c5ccccc45)[nH]c23)O1` had an IC50 in experiment [1] of 15400 nM.

For the compound `CC1(C)CCc2c(c3ccccc3c3nc(-c4ccccc4)[nH]c23)O1`, in experiment [1], the IC50 was 39400 nM.

In turn, `CC1(C)CCc2c(c3ccccc3c3ncoc23)O1` registered an IC50 in experiment [2] of 325000 nM.

As for `CC1(C)CCc2c(c3ccccc3c3nc(-c4ccccc4)oc23)O1`, it took 284000 nM to reach half-maximal inhibition in experiment [2] (IC50).

`Cc1ccc(-c2nc3c([nH]2)c2c(c4ccccc43)OC(C)(C)CC2)cc1` came in with an IC50 in experiment [1] of 15500 nM.

For `O=C1C(=O)c2ccccc2C2=C1CCCO2`, the IC50 in experiment [3], in experiment [4] and in experiment [5] was 920 nM each time.

As to `O=C1C(=O)c2ccccc2C2=C1CCO2`, the IC50 in experiment [3], in experiment [4] and in experiment [5] was 920 nM each time.

In general, IC50 refers to the concentration that inhibits the measured activity by half. Low values mean higher potency, high ones lower potency.
